Non-standard residues stand in square brackets, D forms with d. Residues, ends and D or L forms follow the SMILES beside them. ξ: configuration not given here. ξBip(2'-Et-4'-OMe) = CCc1cc(OC)ccc1-c1ccc(CC(N)C(=O)O)cc1; ξNva(5-(3-Cl-Ph)) = NC(CCCc1cccc(Cl)c1)C(=O)O
Key:
[1] = test system: C57BL/6J mice (mild hyperglycemic); test: In vivo glucose reduction, acute single dose 120-min time-course, i.p. route; set-up: species or system mouse; unit not given here; conditions: male C57BL/6J mice
Method: All the animal experiments were carried out according to the internationally valid guidelines following approval by the ‘Zydus Research Center animal ethical committee’.
Two days prior to the study, the animals were randomised and divided into 5 groups (n=6), based upon their fed glucose levels. On the day of experiment, food was withdrawn from all the cages, water was given ad-libitum and were kept for overnight fasting. Vehicle (normal saline)/test/standard compounds were administered intraperitoneally (i.p.) or orally, on a body weight basis.
(§1) Blood samples were centrifuged and the separated serum was immediately subjected for the glucose estimation. Serum for insulin estimation was stored at −70° C. until used for the insulin estimation. The glucose estimation was carried out with DPEC-GOD/POD method (Ranbaxy Fine Chemicals Limited, Diagnostic division, India), using Spectramax-190, in 96-microwell plate reader (Molecular devices Corporation, Sunnyvale, Calif.). […] The AUC and BCAUC obtained from graphs were analyzed for one way ANOVA, followed by Dunnett's post test, using Graph Pad prism software. Furthermore, the insulin estimation was carried out using rat/mouse insulin ELISA kit (Linco research, Missouri USA).

[2] = test system: C57BL/6J mice (mild hyperglycemic); test: In vivo glucose reduction, acute single dose 120-min time-course, oral route; set-up: species or system mouse; unit not given here; conditions: male C57BL/6J mice
Method: Acute single dose 120-min time-course experiments were carried out in male C57BL/6J or db/db mice, age 8-12 weeks, bred in-house. Animals were housed in groups of 6 animals per cage, for a week, in order to habituate them to vivarium conditions (25±4° C., 60-65% relative humidity, 12:12 h light:dark cycle, with lights on at 7.30 am). All the animal experiments were carried out according to the internationally valid guidelines following approval by the ‘Zydus Research Center animal ethical committee’.
Two days prior to the study, the animals were randomised and divided into 5 groups (n=6), based upon their fed glucose levels. On the day of experiment, food was withdrawn from all the cages, water was given ad-libitum and were kept for overnight fasting. Vehicle (normal saline)/test/standard compounds were administered intraperitoneally (i.p.) or orally, on a body weight basis. Soon after the 0 min. blood collection from each animal, the subsequent blood collections were done at 30, 60 and 120 or up to 240 min., via retro-orbital route, under light ether anesthesia (Chen, D., et al., Diabetes Obesity Metabolism, 2005, 7, 307. Kim, J. G. et al., Diabetes, 2003, 52, 751).
as §1, with “USA). Changes in the blood glucose levels, at 0, 30, 60 and 120 min, with selected peptidomimetics are shown in Table 7 (via ip route of administration) and Table 8 (via oral route of administration) respectively.” for “USA).”

Row | Structure (SMILES) | blood glucose levels ([2]; 2 μM/kg oral, 0 min) | blood glucose levels ([2]; 2 μM/kg oral, 30 min) | blood glucose levels ([2]; 2 μM/kg oral, 60 min) | blood glucose levels ([2]; 2 μM/kg oral, 120 min) | blood glucose levels ([1]; 20 nM/kg i.p., 0 min) | blood glucose levels ([1]; 20 nM/kg i.p., 30 min) | blood glucose levels ([1]; 20 nM/kg i.p., 60 min) | blood glucose levels ([1]; 20 nM/kg i.p., 120 min) | blood glucose levels ([1]; 30 nM/kg i.p., 0 min) | blood glucose levels ([1]; 30 nM/kg i.p., 30 min) | blood glucose levels ([1]; 30 nM/kg i.p., 60 min) | blood glucose levels ([1]; 30 nM/kg i.p., 120 min) | further results
1 | CCc1cc(OC)ccc1-c1ccc(CC(NC(=O)[C@H](CC(=O)O)NC(=O)[C@H](CO)NC(=O)[C@@H](NC(=O)C(C)(Cc2ccccc2F)NC(=O)[C@@H](NC(=O)CNC(=O)C(CCC#N)NC(=O)C(C)(C)NC(=O)[C@H](Cc2c[nH]cn2)NC(C)=O)[C@@H](C)O)[C@@H](C)O)C(=O)NC(CCCc2ccccc2F)C(N)=O)cc1 (single isomer, unassigned) [Seq. ID. 207] | 183 ± 2.4 | 116 ± 3.1 | 112 ± 4.8 | 110 ± 2.5 |  |  |  |  |  |  |  |  | blood glucose levels ([1]; 50 nM/kg i.p., 0 min): 184 ± 5.0; blood glucose levels ([1]; 50 nM/kg i.p., 30 min): 122 ± 3.8; blood glucose levels ([1]; 50 nM/kg i.p., 60 min): 128 ± 2.1; blood glucose levels ([1]; 50 nM/kg i.p., 120 min): 149 ± 2.3
2 | CCc1cc(OC)ccc1-c1ccc(CC(NC(=O)[C@H](CC(=O)O)NC(=O)[C@H](CO)NC(=O)[C@@H](NC(=O)C(C)(Cc2ccccc2F)NC(=O)[C@@H](NC(=O)CNC(=O)C(CCC#N)NC(=O)C(C)(C)NC(=O)[C@@H](N)Cc2c[nH]cn2)[C@H](C)O)[C@H](C)O)C(=S)NC(CCCc2ccccc2F)C(N)=O)cc1 (single isomer, unassigned) [Seq. ID. 168] |  |  |  |  | 182 ± 3.3 | 120 ± 3.6 | 127 ± 3.4 | 145 ± 2.1 |  |  |  |  | blood glucose levels ([2]; 1.5 μM/kg oral, 0 min): 183 ± 2.0; blood glucose levels ([2]; 1.5 μM/kg oral, 30 min): 117 ± 1.1; blood glucose levels ([2]; 1.5 μM/kg oral, 60 min): 112 ± 1.1; blood glucose levels ([2]; 1.5 μM/kg oral, 120 min): 110 ± 1.8
3 | CCc1cc(OC)ccc1-c1ccc(CC(NC(=O)[C@H](CC(=O)O)NC(=O)[C@H](CO)NC(=O)[C@@H](NC(=O)[C@H](Cc2ccccc2)NC(=O)[C@@H](NC(=O)CNC(=O)C(CCC#N)NC(=O)C(C)(C)NC(=O)[C@@H](N)Cc2c[nH]cn2)[C@@H](C)O)[C@@H](C)O)C(=O)NC(CCCc2ccccc2F)C(N)=O)cc1 (single isomer, unassigned) [Seq. ID. 77] | 183 ± 2.1 | 118 ± 3.4 | 113 ± 4.6 | 111 ± 2.8 | 183 ± 4.9 | 120 ± 2.8 | 129 ± 3.0 | 139 ± 2.0 |  |  |  |  | 
4 | CCc1cc(OC)ccc1-c1ccc(CC(NC(=O)[C@H](CC(=O)O)NC(=O)[C@H](CO)NC(=O)[C@@H](NC(=O)[C@H](Cc2ccccc2)NC(=O)[C@@H](NC(=O)CNC(=O)C(CCC#N)NC(=O)C(C)(C)NC(=O)[C@@H](N)Cc2c[nH]cn2)[C@@H](C)O)[C@@H](C)O)C(=O)NC(CCCc2ccc(F)cc2C(F)(F)F)C(N)=O)cc1 (single isomer, unassigned) [Seq. ID. 80] |  |  |  |  |  |  |  |  |  |  |  |  | blood glucose levels ([1]; 10 nM/kg i.p., 0 min): 183 ± 2.2; blood glucose levels ([1]; 10 nM/kg i.p., 30 min): 113 ± 2.8; blood glucose levels ([1]; 10 nM/kg i.p., 60 min): 113 ± 2.9; blood glucose levels ([1]; 10 nM/kg i.p., 120 min): 114 ± 2.0; blood glucose levels ([2]; 0.5 μM/kg oral, 0 min): 184 ± 2.5; blood glucose levels ([2]; 0.5 μM/kg oral, 30 min): 115 ± 3.6; blood glucose levels ([2]; 0.5 μM/kg oral, 60 min): 113 ± 4.2; blood glucose levels ([2]; 0.5 μM/kg oral, 120 min): 110 ± 2.4
5 | CCc1cc(OC)ccc1-c1ccc(CC(NC(=O)[C@H](CC(=O)O)NC(=O)[C@H](CO)NC(=O)[C@@H](NC(=O)[C@H](Cc2ccccc2)NC(=O)[C@@H](NC(=O)CNC(=O)[C@H](CCC(N)=O)NC(=O)[C@H](C)NC(=O)[C@@H](N)Cc2c[nH]cn2)[C@@H](C)O)[C@@H](C)O)C(=O)NC(CCCc2cccc(Cl)c2)C(N)=O)cc1 (stereo partly drawn) [Seq. ID. 15] (H-HAQGTFTSD[ξBip(2'-Et-4'-OMe)][ξNva(5-(3-Cl-Ph))]-NH2) | 183 ± 2.4 | 116 ± 3.1 | 112 ± 4.8 | 110 ± 2.5 |  |  |  |  | 180 ± 3.2 | 119 ± 3.2 | 117 ± 3.1 | 118 ± 1.8 | 
6 | CCc1cc(OC)ccc1-c1ccc(CC(NC(=O)[C@H](CC(=O)O)NC(=O)[C@H](CO)NC(=O)[C@@H](NC(=O)[C@H](Cc2ccccc2)NC(=O)[C@@H](NC(=O)CNC(=O)C(CCC#N)NC(=O)C(C)(C)NC(=O)[C@@H](N)Cc2c[nH]cn2)[C@@H](C)O)[C@@H](C)O)C(=O)NC(CCCc2ccc(Cl)cc2C)C(N)=O)cc1 (single isomer, unassigned) [Seq. ID. 32] | 181 ± 2.5 | 117 ± 3.3 | 112 ± 4.0 | 108 ± 2.9 | 182 ± 3.3 | 120 ± 3.6 | 127 ± 3.4 | 145 ± 2.1 |  |  |  |  | 
7 | CCc1cc(OC)ccc1-c1ccc(CC(NC(=O)[C@H](CC(=O)O)NC(=O)[C@H](CO)NC(=O)[C@@H](NC(=O)C(C)(Cc2ccccc2F)NC(=O)[C@@H](NC(=O)CNC(=O)C(CCC#N)NC(=O)C(C)(C)NC(=O)[C@@H](N)Cc2c[nH]cn2)[C@H](C)O)[C@H](C)O)C(=O)N(C)C(CCCc2ccccc2)C(N)=O)cc1 (single isomer, unassigned) [Seq. ID. 130] | 183 ± 2.4 | 116 ± 3.1 | 112 ± 4.8 | 110 ± 2.5 |  |  |  |  | 181 ± 5.2 | 119 ± 2.6 | 117 ± 2.1 | 119 ± 2.3 | 
8 | CCc1cc(OC)ccc1-c1ccc(CC(NC(=O)[C@H](CC(=O)O)NC(=O)[C@H](CO)NC(=O)[C@@H](NC(=O)C(C)(Cc2ccccc2F)NC(=O)[C@@H](NC(=O)CNC(=O)[C@H](CC(C(F)(F)F)C(F)(F)F)NC(=O)C(C)(C)NC(=O)[C@@H](N)Cc2c[nH]cn2)[C@@H](C)O)[C@H](C)O)C(=O)NC(CCCc2ccccc2)C(N)=O)cc1 (single isomer, unassigned) [Seq. ID. 225] | 183 ± 2.3 | 119 ± 3.0 | 112 ± 4.3 | 109 ± 2.6 |  |  |  |  |  |  |  |  | blood glucose levels ([1]; 10 nM/kg i.p., 0 min): 184 ± 5.0; blood glucose levels ([1]; 10 nM/kg i.p., 30 min): 122 ± 3.8; blood glucose levels ([1]; 10 nM/kg i.p., 60 min): 128 ± 2.1; blood glucose levels ([1]; 10 nM/kg i.p., 120 min): 149 ± 2.3
9 | CCc1cc(OC)ccc1-c1ccc(CC(NC(=O)[C@H](CC(=O)O)NC(=O)[C@H](CO)NC(=O)[C@@H](NC(=O)[C@H](Cc2ccccc2)NC(=O)[C@@H](NC(=O)CNC(=O)C(CCC#N)NC(=O)C(C)(C)NC(=O)[C@@H](N)Cc2c[nH]cn2)[C@@H](C)O)[C@@H](C)O)C(=O)NC(CCCc2cc(C)cc(C)c2)C(N)=O)cc1 (single isomer, unassigned) [Seq. ID. 30] | 183 ± 2.4 | 119 ± 3.1 | 112 ± 4.8 | 110 ± 2.5 |  |  |  |  | 183 ± 3.6 | 117 ± 3.3 | 116 ± 3.2 | 117 ± 1.4 | 

— US8883963B2 (Cadila Healthcare Limited, priority 2007, dated 2014)
